Assays:
Type in all cases: biochemical
[1] = molecular target: T1, human ME3 enzyme (Homo sapiens, UniProt Q16798); test: ME3 inhibition assay (diaphorase/resazurin coupled fluorescence); settings: 10 μM compound concentration; read-out: Malic Enzyme 3 % inhibition (10 μM)
T1 sequence (Q16798 1-604): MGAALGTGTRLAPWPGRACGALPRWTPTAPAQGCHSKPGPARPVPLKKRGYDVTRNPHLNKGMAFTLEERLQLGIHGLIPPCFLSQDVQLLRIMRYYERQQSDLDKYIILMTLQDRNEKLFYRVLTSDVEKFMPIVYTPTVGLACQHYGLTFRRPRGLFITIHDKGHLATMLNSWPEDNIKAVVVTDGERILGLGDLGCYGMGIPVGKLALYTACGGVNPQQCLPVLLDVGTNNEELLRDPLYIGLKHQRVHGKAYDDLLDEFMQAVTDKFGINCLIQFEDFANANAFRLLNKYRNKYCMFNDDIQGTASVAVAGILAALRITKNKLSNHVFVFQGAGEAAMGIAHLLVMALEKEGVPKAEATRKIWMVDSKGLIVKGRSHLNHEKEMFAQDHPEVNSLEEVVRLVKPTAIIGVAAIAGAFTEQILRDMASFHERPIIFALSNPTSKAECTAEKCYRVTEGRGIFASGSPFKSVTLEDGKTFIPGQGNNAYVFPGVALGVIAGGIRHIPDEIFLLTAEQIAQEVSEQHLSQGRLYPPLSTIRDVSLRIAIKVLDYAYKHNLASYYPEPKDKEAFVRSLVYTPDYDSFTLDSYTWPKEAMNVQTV
Procedure, shortened: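 Coupled read-out: NADPH made by human ME3 (20 nM stock) drives diaphorase conversion of resazurin (50 μM) to resorufin; buffer 50 mM Tris-HCl pH 7.5, 10 mM MnCl2, 3 mM L-malate.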

[2] = molecular target: human ME2 enzyme (Homo sapiens, UniProt P23368); test: ME2 inhibition assay (diaphorase/resazurin coupled fluorescence); settings: 10 μM compound concentration; read-out: Malic Enzyme 2 % inhibition (10 μM)
Sequence of human ME2 enzyme (P23368 19-584): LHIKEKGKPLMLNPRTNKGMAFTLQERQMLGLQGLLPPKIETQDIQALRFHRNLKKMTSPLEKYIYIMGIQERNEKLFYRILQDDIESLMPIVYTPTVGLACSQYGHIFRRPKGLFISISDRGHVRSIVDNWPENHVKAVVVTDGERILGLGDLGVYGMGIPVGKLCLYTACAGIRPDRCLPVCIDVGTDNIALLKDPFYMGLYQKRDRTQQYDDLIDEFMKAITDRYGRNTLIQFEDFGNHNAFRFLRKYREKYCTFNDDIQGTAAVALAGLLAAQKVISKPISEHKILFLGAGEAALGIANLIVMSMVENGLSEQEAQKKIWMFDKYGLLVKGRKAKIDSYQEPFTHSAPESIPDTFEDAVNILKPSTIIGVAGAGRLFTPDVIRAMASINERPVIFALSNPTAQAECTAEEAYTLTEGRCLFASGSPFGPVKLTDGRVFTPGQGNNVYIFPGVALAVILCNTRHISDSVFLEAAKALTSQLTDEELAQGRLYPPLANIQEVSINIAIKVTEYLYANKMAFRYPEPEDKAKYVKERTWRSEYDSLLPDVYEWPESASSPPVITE
Procedure, shortened: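 Human ME2 (10 μL of 60 nM) was preincubated 5 min at room temperature with compound (10 μM) in 50 mM Tris-HCl pH 7.5, 10 mM MnCl2, 7 mM L-malate, 50 μM resazurin and 0.025 mg/ml diaphorase. The reaction was started with 10 μL of 2 mM β-NAD+ and run 2 hours at room temperature. Resorufin fluorescence (ex 540/em 600 nm) was normalized to enzyme-only (100%) and no-enzyme (0%) controls as % activity.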

[3] = molecular target: T2, human ME1 enzyme (Homo sapiens, UniProt P48163); test: ME1 inhibition assay (diaphorase/resazurin coupled fluorescence); settings: 10 μM compound concentration; read-out: Malic Enzyme 1 % inhibition (10 μM)
T2 sequence (P48163 1-572): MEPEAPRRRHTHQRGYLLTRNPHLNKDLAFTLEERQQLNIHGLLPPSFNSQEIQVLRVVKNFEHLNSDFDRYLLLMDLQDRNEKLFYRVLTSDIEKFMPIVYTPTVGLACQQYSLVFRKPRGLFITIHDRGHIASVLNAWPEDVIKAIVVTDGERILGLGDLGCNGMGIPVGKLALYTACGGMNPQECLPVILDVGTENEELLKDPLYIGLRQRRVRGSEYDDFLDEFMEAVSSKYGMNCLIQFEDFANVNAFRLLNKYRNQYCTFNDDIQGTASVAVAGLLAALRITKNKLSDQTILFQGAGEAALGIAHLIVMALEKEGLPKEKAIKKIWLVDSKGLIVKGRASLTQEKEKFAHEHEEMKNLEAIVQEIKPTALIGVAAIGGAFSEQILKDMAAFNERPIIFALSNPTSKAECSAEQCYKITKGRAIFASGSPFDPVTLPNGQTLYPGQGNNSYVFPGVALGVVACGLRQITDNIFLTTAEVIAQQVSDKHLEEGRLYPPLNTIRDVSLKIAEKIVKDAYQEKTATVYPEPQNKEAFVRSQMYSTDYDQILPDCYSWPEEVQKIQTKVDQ
Procedure, shortened: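 Compounds at 10 μM preincubated 15 min in 50 mM Tris-HCl pH 7.5, 10 mM MnCl2, 2 mM L-malate, 10 μM resazurin, 0.01 mg/ml diaphorase, then human ME1 added for 5 min; reaction started with NADP+ and run 2 h at room temperature. Resorufin fluorescence (ex 540/em 600 nm) normalized to enzyme-only (100%) and no-enzyme (0%) controls.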

| Compound | inhibition at 10 µM [1] [%] | inhibition at 10 µM [2] [%] | inhibition at 10 µM [3] [%] |
| --- | --- | --- | --- |
| O=C(CCc1cc2ccccc2s1)N1CCN(c2ccc(O)cn2)CC1 [I.122, 3-Benzo[b]-thiophen-2-yl-1-[4-(5-hydroxy-pyridin-2-yl)-piperazin-1-yl]-propan-1-one] | > 90 | > 90 | > 90 |
| O=C(c1ccc(-c2ccccc2)s1)N1CCN(c2ccc(O)cn2)CC1 [I.123, [4-(5-Hydroxy-pyridin-2-yl)-piperazin-1-yl]-(5-phenyl-thiophen-2-yl)-methanone] | > 90 | 70 to 89 | 70 to 89 |
| O=C(C1CC(O)(c2ccccc2)C1)N1CCN(c2ccc(O)cn2)CC1 (stereo not drawn) [I.124, (3-Hydroxy-3-phenylcyclo-butyl)-[4-(5-hydroxy-pyridin-2-yl)-piperazin-1-yl]-methanone] | > 90 | > 90 | > 90 |
| CC(C)(CC(=O)N1CCN(c2ccc(O)cn2)CC1)c1ccccc1 [I.125, 1-[4-(5-Hydroxy-pyridin-2-yl)-piperazin-1-yl]-3-methyl-3-phenyl-butan-1-one] | > 90 | > 90 | > 90 |
| O=C(CCc1ccc(F)cc1)N1CCN(c2ccc(O)cn2)CC1 [I.126, 3-(4-Fluoro-phenyl)-1-[4-(5-hydroxy-pyridin-2-yl)-piperazin-1-yl]-propan-1-one] | > 90 | > 90 | > 90 |
| Cc1[nH]c2ccccc2c1CC(=O)N1CCN(c2ccc(O)cn2)CC1 [I.127, 1-[4-(5-Hydroxy-pyridin-2-yl)-piperazin-1-yl]-2-(2-methyl-1H-indol-3-yl)-ethanone] | > 90 | > 90 | > 90 |
| O=C(CCc1ccccc1C(F)(F)F)N1CCN(c2ccc(O)cn2)CC1 [I.128, 1-[4-(5-Hydroxy-pyridin-2-yl)-piperazin-1-yl]-3-(2-trifluoro-methylphenyl)-propan-1-one] | > 90 | > 90 | > 90 |
| O=C(CCc1ccccn1)N1CCN(c2ccc(O)cn2)CC1 [I.129, 1-[4-(5-Hydroxy-pyridin-2-yl)-piperazin-1-yl]-3-pyridin-2-yl-propan-1-one] | > 90 | 70 to 89 | 70 to 89 |
| O=C(CC(O)c1ccccc1)N1CCN(c2ccc(O)cn2)CC1 (stereo not drawn) [I.130, 3-Hydroxy-1-[4-(5-hydroxy-pyridin-2-yl)-piperazin-1-yl]-3-phenyl-propan-1-one] | > 90 | > 90 | 70 to 89 |
| O=C(Cc1c[nH]c2ccc(F)cc12)N1CCN(c2ccc(O)cn2)CC1 [I.131, 2-(5-fluoro-1H-indol-3-yl)-1-[4-(5-hydroxypyridin-2-yl)-piperazin-1-yl]-ethanone] | > 90 | > 90 | > 90 |
| O=C(C1CCCc2ccccc21)N1CCN(c2ccc(O)cn2)CC1 (stereo not drawn) [I.132, [4-(5-Hydroxy-pyridin-2-yl)-piperazin-1-yl]-(1,2,3,4-tetrahydro-naphthalen-1-yl)-methanone] | > 90 | > 90 | 70 to 89 |
| O=C(C1CC(c2ccccc2)C1)N1CCN(c2ccc(O)cn2)CC1 (stereo not drawn) [I.134, [4-(5-Hydroxy-pyridin-2-yl)-piperazin-1-yl]-(3-phenyl-cyclobutyl)-methanone] | > 90 | > 90 | > 90 |
| O=C(CCn1ccc2ccccc21)N1CCN(c2ccc(O)cn2)CC1 [I.135, 1-[4-(5-Hydroxy-pyridin-2-yl)-piperazin-1-yl]-3-indol-1-yl-propan-1-one] | > 90 | > 90 | 70 to 89 |
| O=C(CCn1cnc2ccccc21)N1CCN(c2ccc(O)cn2)CC1 [I.136, 3-Benzo-imidazol-1-yl-1-[4-(5-hydroxy-pyridin-2-yl)-piperazin-1-yl]-propan-1-one] | > 90 | > 90 | 70 to 89 |

Source: US11225480B2, “Malic enzyme inhibitors” (SUN PHARMA ADVANCED RESEARCH COMPANY LTD, priority 2019, dated 2022)
